Assay results taken from patent publication US7592457B2 (Korea Research Institute of Chemical Technology, priority 2004, dated 2009).
Where two headings read alike, the source gives them in different places.

Legend:
[1] = target: T1, human serotonin 5-HT6 receptor (Homo sapiens, UniProt P50406); experiment: [3H]LSD binding at cloned 5-HT6 receptors; details: for inhibition at 10 µM: read-out: Binding affinity (Inhibition rate % at 10 μM) 5HT6
T1 construct: made in house; host or cells: Sf21 insect cells (pBacPAK8 baculovirus vector)

[2] = target: D1 (Homo sapiens, UniProt P21728); experiment: Radioligand binding for selectivity, D1; details: read-out: Binding affinity (Inhibition rate % at 10 μM) D1
[3] = target: T2, hD2L receptor (Homo sapiens, UniProt P14416); experiment: Radioligand binding, dopamine D2 ([3H]spiperone); details: read-out: Binding affinity (Inhibition rate % at 10 μM) D2
T2 construct: purchased BioSignal Packard Inc., Montreal, Canada
Protocol: (§1) The radioligands used were [^3H] spiperone (for hD2L and hD3 receptors, 1 nM) and [^3H] YM-09151-2 (for hD4.2 receptor, 0.06 nM). Radioligand bindings were performed by the protocols provided by the supplier of receptor membranes (BioSignal Packard Inc., Montreal, Canada). Briefly, the buffer used in D2 or D3 receptor binding assay was 50 mM Tris-HCl (pH 7.4), 10 mM MgCl2, 1 mM EDTA, or 50 mM Tris-HCl (pH 7.4), 5 mM MgCl2, 5 mM EDTA, 5 mM KCl, 1.5 mM CaCl2, 120 mM NaCl, respectively. In [^3H] YM-09151-2 receptor binding assays, the buffer containing 50 mM Tris-HCl (pH 7.4), 5 mM MgCl2, 5 mM EDTA, 5 mM KCl and 1.5 mM CaCl2 was used. Nonspecific binding was determined with haloperidol (10 μM) or clozapine (10 μM) for D2 and D3, and D4 receptors, respectively. Competition binding studies were carried out with 7-8 concentrations of the test compound run in duplicate tubes, and isotherms from three assays were calculated by computerized nonlinear regression analysis (GraphPad Prism Program, San Diego, […]) to yield median inhibitory concentration (IC50) values.

[4] = target: T3, hD3 receptor (Homo sapiens, UniProt P35462); experiment: Radioligand binding, dopamine D3 ([3H]spiperone); details: read-out: Binding affinity (Inhibition rate % at 10 μM) D3
T3 construct: purchased BioSignal Packard Inc., Montreal, Canada
Protocol: as §1

[5] = target: T4, hD4.2 receptor (Homo sapiens, UniProt P21917, DEL265-296); experiment: Radioligand binding, dopamine D4 ([3H]YM-09151-2); details: read-out: Binding affinity (Inhibition rate % at 10 μM) D4
T4 construct: purchased BioSignal Packard Inc., Montreal, Canada
T4 sequence (P21917 with tags, fused parts or gaps DEL265-296): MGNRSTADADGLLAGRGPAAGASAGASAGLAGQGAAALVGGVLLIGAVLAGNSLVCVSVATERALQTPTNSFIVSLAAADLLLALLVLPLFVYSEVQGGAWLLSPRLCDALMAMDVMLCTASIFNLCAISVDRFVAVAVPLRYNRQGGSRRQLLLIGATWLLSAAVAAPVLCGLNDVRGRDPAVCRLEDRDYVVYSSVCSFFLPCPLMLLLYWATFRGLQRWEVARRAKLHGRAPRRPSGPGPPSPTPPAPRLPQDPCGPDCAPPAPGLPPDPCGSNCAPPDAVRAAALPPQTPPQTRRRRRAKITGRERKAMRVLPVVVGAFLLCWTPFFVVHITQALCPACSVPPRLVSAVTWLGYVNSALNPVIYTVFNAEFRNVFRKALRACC
Protocol: as §1

[6] = target: T5, 5-HT1a (Homo sapiens, UniProt P08908); experiment: Radioligand binding, 5-HT1a ([3H]8-OH-DPAT); details: read-out: Binding affinity (Inhibition rate % at 10 μM) 5HT1a
T5 construct: purchased Euroscreen/BioSignal Packard Inc
T5 sequence (P08908 1-422): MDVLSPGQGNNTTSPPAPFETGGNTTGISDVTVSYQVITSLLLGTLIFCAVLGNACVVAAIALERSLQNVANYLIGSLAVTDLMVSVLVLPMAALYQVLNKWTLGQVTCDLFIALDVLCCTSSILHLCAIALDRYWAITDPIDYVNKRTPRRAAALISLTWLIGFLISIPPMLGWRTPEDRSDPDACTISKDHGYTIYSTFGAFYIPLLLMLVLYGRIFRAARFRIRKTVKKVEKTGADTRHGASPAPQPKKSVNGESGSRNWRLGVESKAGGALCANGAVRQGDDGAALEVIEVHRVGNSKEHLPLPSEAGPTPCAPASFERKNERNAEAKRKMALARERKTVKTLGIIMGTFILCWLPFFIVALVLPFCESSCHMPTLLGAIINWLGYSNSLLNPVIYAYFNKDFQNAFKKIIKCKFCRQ
Protocol: (§2) Radioligand bindings were performed according to the test method provided by the supplier of receptor membrane (Euroscreen/BioSignal Packard Inc.).

[7] = target: T6, 5-HT2a (Homo sapiens, UniProt P28223); experiment: Radioligand binding, 5-HT2a ([3H]Ketanserin); details: read-out: Binding affinity (Inhibition rate % at 10 μM) 5HT2a
T6 construct: purchased Euroscreen/BioSignal Packard Inc
Protocol: as §2

[8] = target: T7, 5-HT2c (Homo sapiens, UniProt P28335); experiment: Radioligand binding, 5-HT2c ([3H]Mesulergine); details: read-out: Binding affinity (Inhibition rate % at 10 μM) 5HT2c
T7 construct: purchased Euroscreen/BioSignal Packard Inc
T7 sequence (P28335 33-458): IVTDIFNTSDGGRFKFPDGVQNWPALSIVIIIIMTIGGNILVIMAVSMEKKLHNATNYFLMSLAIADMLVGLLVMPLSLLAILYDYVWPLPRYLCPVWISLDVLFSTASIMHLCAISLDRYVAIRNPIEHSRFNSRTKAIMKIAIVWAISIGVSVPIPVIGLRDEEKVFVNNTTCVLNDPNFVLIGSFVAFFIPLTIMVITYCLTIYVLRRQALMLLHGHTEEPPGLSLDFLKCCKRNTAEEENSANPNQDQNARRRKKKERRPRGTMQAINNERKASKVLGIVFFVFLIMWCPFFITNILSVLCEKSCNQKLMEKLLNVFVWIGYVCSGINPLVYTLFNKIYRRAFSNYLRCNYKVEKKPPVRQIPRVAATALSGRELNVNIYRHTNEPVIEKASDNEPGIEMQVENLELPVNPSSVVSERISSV
Protocol: as §2

[9] = target: T8, 5-HT7 (Homo sapiens, UniProt P34969); experiment: Radioligand binding, 5-HT7 ([3H]LSD); details: read-out: Binding affinity (Inhibition rate % at 10 μM) 5HT7
T8 construct: purchased Euroscreen/BioSignal Packard Inc
Protocol: as §2

[10] = [3H]LSD 1.87 nM, cloned receptor membranes, 37° C., 60 min, read-out: IC50

T8 sequence (P34969 whole entry): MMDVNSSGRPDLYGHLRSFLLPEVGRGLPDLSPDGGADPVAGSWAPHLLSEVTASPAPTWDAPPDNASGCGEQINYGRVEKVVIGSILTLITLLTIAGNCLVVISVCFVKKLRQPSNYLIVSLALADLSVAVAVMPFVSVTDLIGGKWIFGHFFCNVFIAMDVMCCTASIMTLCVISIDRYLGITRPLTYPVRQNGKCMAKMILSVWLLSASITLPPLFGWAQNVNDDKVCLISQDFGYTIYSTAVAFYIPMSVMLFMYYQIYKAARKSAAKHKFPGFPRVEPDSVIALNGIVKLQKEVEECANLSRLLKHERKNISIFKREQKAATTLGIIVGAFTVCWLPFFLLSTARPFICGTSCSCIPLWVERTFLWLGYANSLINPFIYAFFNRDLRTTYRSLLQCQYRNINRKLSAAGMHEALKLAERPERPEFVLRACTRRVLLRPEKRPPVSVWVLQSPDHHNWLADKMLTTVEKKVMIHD
T1 sequence (P50406 whole entry): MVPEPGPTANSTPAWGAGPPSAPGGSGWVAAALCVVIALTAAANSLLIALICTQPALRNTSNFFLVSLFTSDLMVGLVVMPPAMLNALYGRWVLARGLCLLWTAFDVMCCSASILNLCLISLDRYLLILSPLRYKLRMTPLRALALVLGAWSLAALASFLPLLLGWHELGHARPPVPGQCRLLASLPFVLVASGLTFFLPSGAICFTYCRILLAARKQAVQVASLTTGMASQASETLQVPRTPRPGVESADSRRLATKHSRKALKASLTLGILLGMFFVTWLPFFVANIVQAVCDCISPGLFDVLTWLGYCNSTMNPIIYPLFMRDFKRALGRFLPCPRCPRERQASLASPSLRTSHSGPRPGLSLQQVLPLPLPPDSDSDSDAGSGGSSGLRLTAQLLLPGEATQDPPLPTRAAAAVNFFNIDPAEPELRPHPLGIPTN
T2 sequence (P14416 whole entry): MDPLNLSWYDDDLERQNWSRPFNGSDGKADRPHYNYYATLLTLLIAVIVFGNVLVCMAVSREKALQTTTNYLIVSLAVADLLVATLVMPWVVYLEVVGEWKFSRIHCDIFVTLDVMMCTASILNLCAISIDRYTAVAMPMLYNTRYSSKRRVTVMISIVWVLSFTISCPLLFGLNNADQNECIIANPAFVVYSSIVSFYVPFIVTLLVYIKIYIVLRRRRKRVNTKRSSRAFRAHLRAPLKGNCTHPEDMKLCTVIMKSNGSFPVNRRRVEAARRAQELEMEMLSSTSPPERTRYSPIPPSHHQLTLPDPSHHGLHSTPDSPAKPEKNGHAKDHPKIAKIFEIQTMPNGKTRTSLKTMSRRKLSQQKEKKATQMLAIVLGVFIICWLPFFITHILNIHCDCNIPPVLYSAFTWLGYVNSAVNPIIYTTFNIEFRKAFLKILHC
T3 sequence (P35462 whole entry): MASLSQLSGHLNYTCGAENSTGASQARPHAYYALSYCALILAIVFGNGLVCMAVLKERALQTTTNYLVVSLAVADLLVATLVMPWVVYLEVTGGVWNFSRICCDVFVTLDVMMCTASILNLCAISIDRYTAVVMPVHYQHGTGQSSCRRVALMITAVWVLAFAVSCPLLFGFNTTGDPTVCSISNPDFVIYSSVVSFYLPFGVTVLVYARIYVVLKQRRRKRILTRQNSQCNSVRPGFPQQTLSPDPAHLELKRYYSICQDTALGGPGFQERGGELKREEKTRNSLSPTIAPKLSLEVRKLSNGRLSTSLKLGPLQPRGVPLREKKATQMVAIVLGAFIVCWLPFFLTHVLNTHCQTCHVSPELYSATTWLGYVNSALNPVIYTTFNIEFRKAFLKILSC
Chain of D1 (P21728 whole entry): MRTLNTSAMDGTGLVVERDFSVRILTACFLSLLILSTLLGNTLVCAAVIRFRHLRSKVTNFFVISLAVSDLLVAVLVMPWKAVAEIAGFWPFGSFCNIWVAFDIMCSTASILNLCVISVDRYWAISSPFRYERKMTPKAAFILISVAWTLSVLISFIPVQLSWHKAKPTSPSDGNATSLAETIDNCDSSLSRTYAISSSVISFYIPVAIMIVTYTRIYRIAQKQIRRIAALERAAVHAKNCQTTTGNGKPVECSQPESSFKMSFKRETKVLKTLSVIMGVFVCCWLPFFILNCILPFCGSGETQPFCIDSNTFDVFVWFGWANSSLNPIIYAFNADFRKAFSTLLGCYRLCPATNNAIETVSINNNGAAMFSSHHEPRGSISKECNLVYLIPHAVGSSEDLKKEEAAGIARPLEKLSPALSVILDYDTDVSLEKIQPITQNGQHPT
T6 sequence (P28223 whole entry): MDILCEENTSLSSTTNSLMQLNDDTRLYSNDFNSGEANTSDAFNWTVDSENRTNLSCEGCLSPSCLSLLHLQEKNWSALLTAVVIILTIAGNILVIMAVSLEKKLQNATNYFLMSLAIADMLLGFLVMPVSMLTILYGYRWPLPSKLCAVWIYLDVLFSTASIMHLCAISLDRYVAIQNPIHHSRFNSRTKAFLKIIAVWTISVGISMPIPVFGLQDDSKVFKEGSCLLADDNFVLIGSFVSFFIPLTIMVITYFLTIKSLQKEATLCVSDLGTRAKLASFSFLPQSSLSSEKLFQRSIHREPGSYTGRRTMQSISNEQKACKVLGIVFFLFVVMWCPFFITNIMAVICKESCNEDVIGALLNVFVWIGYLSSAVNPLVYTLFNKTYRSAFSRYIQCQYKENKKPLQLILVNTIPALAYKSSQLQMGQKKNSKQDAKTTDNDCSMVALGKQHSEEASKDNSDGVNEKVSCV

Compound | IC50 [1, 10] [nM] | inhibition at 10 µM [1] [%] | inhibition at 10 µM [2] [%] | inhibition at 10 µM [3] [%] | inhibition at 10 µM [4] [%] | inhibition at 10 µM [5] [%] | inhibition at 10 µM [6] [%] | inhibition at 10 µM [7] [%] | inhibition at 10 µM [8] [%] | inhibition at 10 µM [9] [%] | melting point | 5-HT6 affinity compared with known selective antagonists ([1]; in words) | IC50 [1] [nM]
CC1(c2ccc(OCc3ccccc3)c(Br)c2)C(=O)Nc2cc(Cl)cc(Cl)c2C1=O (centres unmarked) [Example 23, 3-(4-benzyloxy-3-bromo-phenyl)-5,7-dichloro-3-methyl-1H-quinoline-2,4-dione] | 1260 | 70.6 | 16.8 | 9.6 | 32.5 | 0.7 | 64.9 | 26.4 | 21.9 | 27.4 | 189 to 190 °C |  | 
COc1cc(Cl)cc2c1C(=O)C(C)(c1ccccc1)C(=O)N2 (centres unmarked) [Example 6, 7-chloro-5-methoxy-3-methyl-3-phenyl-1H-quinoline-2,4-dione] | 428 | 68.3 | 31.1 | 29.7 | 23 | 1.6 | 65.8 | 10.6 | 13.5 | 19.5 | 267 to 269 °C |  | 
CN(C)c1ccc(C2(C)C(=O)Nc3cc(Cl)cc(Cl)c3C2=O)cc1 (centres unmarked) [Example 40, 5,7-dichloro-3-(4-dimethylamino-phenyl)-3-methyl-1H-quinoline-2,4-dione] | 563 | 67.2 | 40.8 | 10.5 | 4.5 | 0 | 50.2 | 42.2 | 6.5 | 30.3 | 268 to 269 °C |  | 
CC1(c2ccc(Br)cc2)C(=O)Nc2cc(Cl)cc(Cl)c2C1=O (centres unmarked) [Example 18, 3-(4-bromo-phenyl)-5,7-dichloro-3-methyl-1H-quinoline-2,4-dione] | 494 | 73.8 | 37.7 | 16 | 12.5 | 0 | 8 | 16.9 | 10.7 | 7.8 | 237 to 238 °C |  | 
CC1(c2cccc(O)c2)C(=O)Nc2cc(Cl)cc(Cl)c2C1=O (centres unmarked) [Example 20, 3-(3-hydroxy-phenyl)-5,7-dichloro-3-methyl-1H-quinoline-2,4-dione] | 49 | 91.7 | 64.6 | 10.9 | 13.2 | 0 | 0 | 46.1 | 4.7 | 29.2 | 248 °C (dec.) | almost same affinities as or better affinities than known selective antagonists | 
CN1CCN(c2ccc3c(c2)NC(=O)C(C)(c2ccc([N+](=O)[O-])cc2)C3=O)CC1 (centres unmarked) [Example 51, 3-methyl-7-(4-methyl-piperazine-1-yl)-3-(4-nitro-phenyl)-1H-quinoline-2,4-dione] | 904 | 73.5 | 40.9 | 7.4 | 13.5 | 0 | 44.2 | 26.4 | 20.3 | 17.5 | 150 to 151 °C |  | 
COc1ccc(C2(C)C(=O)Nc3cc(OC)cc(Cl)c3C2=O)cc1 (centres unmarked) [Example 35, 5-chloro-7-methoxy-3-(4-methoxy-phenyl)-3-methyl-1H-quinoline-2,4-dione] | 1360 | 69.1 | 43.1 | 5.1 | 6.4 | 1.7 | 52.3 | 20.7 | 16.4 | 22.4 | 222 to 224 °C |  | 
CC1(c2ccc(O)c(Br)c2)C(=O)Nc2cc(Cl)cc(Cl)c2C1=O (centres unmarked) [Example 24, 3-(3-bromo-4-hydroxy-phenyl)-5,7-dichloro-3-methyl-1H-quinoline-2,4-dione] | 126 | 71 | 13 | 5 | 16.6 | 0 | 50.4 | 11.5 | 22.8 | 5.5 | 228 to 229 °C |  | 
CC1(c2ccc(O)c(O)c2)C(=O)Nc2ccccc2C1=O (centres unmarked) [Example 32, 3-(3,4-dihydroxy-phenyl)-3-methyl-1H-quinoline-2,4-dione] | 769 | 71 | 39 | 16 | 12.6 | 0 | 13.5 | 26.9 | 31.9 | 20.1 | 259 to 261 °C |  | 
CC1(c2ccc([N+](=O)[O-])cc2)C(=O)Nc2cc(Cl)ccc2C1=O (centres unmarked) [Example 37, 7-chloro-3-methyl-3-(4-nitro-phenyl)-1H-quinoline-2,4-dione] | 1000 | 73.3 | 49.2 | 8.3 | 10.5 | 0 | 10.4 | 49.2 | 1.4 | 21 | 209 to 210 °C |  | 
C[C@H](NC(=O)Oc1cccc(C2(C)C(=O)Nc3cc(Cl)cc(Cl)c3C2=O)c1)c1ccccc1 (some centres unmarked) [Example 26] |  | 70 | 50.5 | 26.5 | 14.8 | 0.5 | 0 | 38.1 | 9.1 | 12.7 | 91 to 94 °C |  | 980
